Laboratory results published in the NIST ThermoML archive (doi:10.1021/acs.jced.8b01027).

Assay: xn = mol fraction of the nth substance listed
Conditions: Liquid, isochoric method, x1 = 0.1965

CCCCCCCC [octane] + O=C=O
mass density [kg/m3]
Conditions | 313.05 K | 322.96 K | 332.84 K
8000 kPa | 740.9 | – | –
9000 kPa | 750.1 | 716.1 | –
10000 kPa | 758.3 | 724.1 | –
11000 kPa | 765.4 | 731.9 | –
12000 kPa | 771.9 | 739.1 | –
13000 kPa | 777.9 | 745.8 | –
14000 kPa | 783.5 | 752 | –
15000 kPa | 788.7 | 757.7 | –
16000 kPa | 793.6 | 763.1 | 732.9
17000 kPa | 798.2 | 768.2 | 739.2
18000 kPa | 802.7 | 772.9 | 745.1
19000 kPa | – | 777.5 | 750.6
19170 kPa | 807 | – | –
20000 kPa | 811.1 | 781.8 | 755.8
21000 kPa | 815 | 786 | –
21020 kPa | – | – | 760.8
22000 kPa | 818.7 | 789.9 | –
22020 kPa | – | – | 765.4
22960 kPa | – | 793.6 | –
22980 kPa | – | – | 769.7
22990 kPa | 822.2 | – | –
23960 kPa | – | 797.3 | –
23990 kPa | – | – | 773.9
24000 kPa | 825.6 | – | –
24550 kPa | 827.5 | – | –
24790 kPa | – | – | 777.1
